Experimental data: US20100256133A1, “NOVEL COMPOUNDS HAVING INDAZOLE FRAMEWORKS, METHODS FOR PREPARING THE SAME AND PHARMACEUTICAL COMPOSITION COMPRISING THE SAME” (priority 2007, published 2010)

Molecular target: T1, GSK3β (Homo sapiens, UniProt P49841)
T1 construct: made in house; host or cells: Sf21 insect cells
Assay: Assay for inhibitory activity against GSK3β (Kinase-Glo luminescence)
Format: biochemical
Conditions: 750 nM ATP, 4 μM GSY-2 phosphopeptide; for inhibition at 25 µM: compound at 25 μM; for inhibition at 25 µM / inhibition at 50 µM: vs control without compound; for inhibition at 50 µM: compound at 50 μM
Experimental: The compounds of the present invention were assayed for inhibitory activity against GSK3β. The GSK-3 is implicated in the incidence of various diseases including diabetes, Alzheimer's disease, CNS disorders and hypertrophic cardiomyopathy.
GSK3β was purified from Sf21 cells using a procedure described in the literature, R. Dajani et. al. (Cell 2001, […], 721-732). GSK3β activity was examined at room temperature in 50 μl of 40 mM Tris-HCl, pH7.4, 10 mM MgCl2, 1 mM DTT, 0.2 mM EDTA, 200 μM NaVO3, 10 mM β-glyceralphosphate, 1 mM EGTA buffer containing 750 nM ATP and 4 μM GSY-2 phosphopeptide (substrate). After incubation at room temperature for […], Kinase-Glo reagent (Promega) was added to reaction mixtures of Preparation Examples 1-1 to 1-12, 1-80 to 1-90, and 1-92. The well plates were incubated at room temperature for […] to stabilize luminescent signals. The luminescent intensity, reflecting the quantity of ATP, was recorded using a counter (Wallac Victor 1420 multilabel counter) and used to determine % inhibition of GSK3β as compared to ATP level in the control to which none of the compounds of the present invention were added.

T1 sequence (P49841 whole entry): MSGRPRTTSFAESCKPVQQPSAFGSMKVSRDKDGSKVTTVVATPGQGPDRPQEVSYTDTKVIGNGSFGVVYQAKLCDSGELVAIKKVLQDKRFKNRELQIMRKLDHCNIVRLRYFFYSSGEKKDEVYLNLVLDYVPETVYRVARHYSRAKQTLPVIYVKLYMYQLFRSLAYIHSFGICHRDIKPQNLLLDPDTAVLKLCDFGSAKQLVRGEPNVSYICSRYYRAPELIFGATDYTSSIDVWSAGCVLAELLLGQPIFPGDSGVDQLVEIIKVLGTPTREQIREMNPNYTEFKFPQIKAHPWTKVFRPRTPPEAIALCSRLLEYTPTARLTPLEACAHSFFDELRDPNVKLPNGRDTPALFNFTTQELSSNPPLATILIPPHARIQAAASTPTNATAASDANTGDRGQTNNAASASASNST

Compound | IC50 | inhibition at 25 µM | inhibition at 50 µM
O=C(Nc1n[nH]c2nc(-c3cnn4ccccc34)c(F)cc12)C1CC1 [Example 1-1] | 10.2 µM | 80.8% | 96.3%
O=C(Nc1n[nH]c2nc(-c3cnn4ccccc34)c(F)cc12)C1CCCC1 [Example 1-2] | 14.9 µM | 76.9% | 95.3%
Cc1cccc2c(-c3nc4[nH]nc(NC(=O)C5CC5)c4cc3F)cnn12 [Example 1-3] | – | 11.6% | 53.1%
Cc1cccc2c(-c3nc4[nH]nc(NC(=O)C5CCCC5)c4cc3F)cnn12 [Example 1-4] | – | 63.8% | 82.1%
Cc1cccc2c(-c3nc4[nH]nc(NC(=O)c5cccc(C#N)c5)c4cc3F)cnn12 [Example 1-5] | – | 35.1% | 78%
Cc1cccc2c(-c3nc4[nH]nc(NC(=O)Cc5ccc(F)cc5)c4cc3F)cnn12 [Example 1-6] | – | 48.3% | 70.8%
Cc1cccc2c(-c3nc4[nH]nc(NC(=O)c5ccc(N(C)C)cc5)c4cc3F)cnn12 [Example 1-7] | 13.3 µM | 71.2% | 92.3%
COc1ccn2ncc(-c3nc4[nH]nc(NC(=O)C5CC5)c4cc3F)c2c1 [Example 1-8] | – | 37.7% | 61.6%
COc1ccn2ncc(-c3nc4[nH]nc(NC(=O)Cc5ccc(F)cc5)c4cc3F)c2c1 [Example 1-9] | 20 µM | 58.2% | 94.6%
O=C(Cc1ccc(F)cc1)Nc1n[nH]c2nc(-c3cnn4ccccc34)c(F)cc12 [Example 1-10] | 14.4 µM | 77.4% | 90.7%
Nc1n[nH]c2nc(-c3cnn4ccccc34)c(F)cc12 [Example 1-11] | – | 30% | –
COc1ccn2ncc(-c3nc4[nH]nc(N)c4cc3F)c2c1 [Example 1-12] | – | 87.7% | –
CC(=O)OCCn1nc(N)c2cc(F)c(-c3cnn4c(C)cccc34)nc21 [Example 1-80] | – | 19.7% | 37.8%
CC(=O)OCCn1nc(NC(=O)c2ccc(F)cc2)c2cc(F)c(-c3cnn4c(C)cccc34)nc21 [Example 1-81] | – | 81.9% | 97.5%
CC(=O)OCCn1nc(N)c2cc(F)c(-c3cnn4ccccc34)nc21 [Example 1-82] | – | 64.5% | 80.4%
COc1ccn2ncc(-c3nc4c(cc3F)c(N)nn4CCOC(C)=O)c2c1 [Example 1-83] | – | 81.2% | 87.2%
CC(=O)OCCn1nc(NC(=O)C2CC2)c2cc(F)c(-c3cnn4ccccc34)nc21 [Example 1-84] | – | 24.4% | 49.5%
CC(=O)OCCn1nc(NC(=O)C2CCCC2)c2cc(F)c(-c3cnn4ccccc34)nc21 [Example 1-85] | 34.9 µM | 68.6% | 90.1%
O=C(Cc1ccc(F)cc1)Nc1nn(CCO)c2nc(-c3cnn4ccccc34)c(F)cc12 [Example 1-86] | – | 47.9% | 86.5%
Nc1nn(CCO)c2nc(-c3cnn4ccccc34)c(F)cc12 [Example 1-87] | – | 26.7% | –
CC(=O)OCCn1nc(NC(=O)c2ccccc2)c2cc(F)c(-c3cnn4ccccc34)nc21 [Example 1-88] | – | 23% | –
O=C(Nc1nn(CCO)c2nc(-c3cnn4ccccc34)c(F)cc12)c1ccccc1 [Example 1-89] | – | 1.5% | –
COc1ccn2ncc(-c3nc4c(cc3F)c(N)nn4CCO)c2c1 [Example 1-90] | – | 116% | –
COc1ccn2ncc(-c3nc4c(cc3F)c(NC(=O)c3ccccc3)nn4CCO)c2c1 [Example 1-92] | – | 117% | –
Cc1cccc2c(-c3nc4c(cc3F)c(NC(=O)c3ccc(F)cc3)nn4C(=O)c3ccc(F)cc3)cnn12 [Example 1-93] | – | 51.6% | 88.6%
O=C(Nc1nn(C(=O)C2CCCC2)c2nc(-c3cnn4ccccc34)c(F)cc12)C1CCCC1 [Example 1-94] | – | 41.7% | 87.2%
CC(=O)OCCn1nc(NC(=O)Cc2ccc(F)cc2)c2cc(F)c(-c3cnn4ccccc34)nc21 [Example 1-95] | – | 53.2% | 78.9%
